Tests used:
L1210 [1] = test: Antitumor activity against mouse L1210 cells allografted in CDF1 mouse at 50 mg/kg, ip administered from day 1 to day 9 relative to control; assay type: functional; conditions: route intraperitoneal
L1210 [2] = test: Antitumor activity against mouse L1210 cells allografted in CDF1 mouse at 200 mg/kg, ip administered from day 1 to day 9 relative to control; assay type: functional; conditions: route intraperitoneal
L1210 [3] = test: Antitumor activity against mouse L1210 cells allografted in CDF1 mouse at 100 mg/kg, ip administered from day 1 to day 9 relative to control; assay type: functional; conditions: route intraperitoneal
[4] = Antitumor activity against mouse ependymoblastoma cells allografted in […] mouse at 200 mg/kg, ip administered from day 1 to day 5 relative to control; assay type: functional; conditions: route intraperitoneal
[5] = Antitumor activity against mouse ependymoblastoma cells allografted in […] mouse at 100 mg/kg, ip administered from day 1 to day 5 relative to control; assay type: functional; conditions: route intraperitoneal
Mus musculus = test: Toxicity in […] mouse allografted with mouse ependymoblastoma cells at 400 mg/kg, ip administered from day 1 to day 5 relative to control; assay type: organism-based; parameters: dose 400 mg/kg, route intraperitoneal; conditions: in vivo
[6] = Antitumor activity against mouse ependymoblastoma cells allografted in […] mouse at 50 mg/kg, ip administered from day 1 to day 5 relative to control; assay type: functional; conditions: route intraperitoneal
L1210 [7] = test: Antitumor activity against mouse L1210 cells allografted in CDF1 mouse at 44 mg/kg, ip administered from day 1 to day 9 relative to control; assay type: functional; conditions: route intraperitoneal
[8] = Antitumor activity against mouse ependymoblastoma cells allografted in C57BL/6 mouse at 130 mg/kg, ip administered from day 1 to day 5 relative to control; assay type: functional; conditions: route intraperitoneal
L1210 [9] = test: Antitumor activity against mouse L1210 cells allografted in CDF1 mouse at 66 mg/kg, ip administered from day 1 to day 9 relative to control; assay type: functional; conditions: route intraperitoneal
[10] = Antitumor activity against mouse ependymoblastoma cells allografted in C57BL/6 mouse at 100 mg/kg, ip administered from day 1 to day 5 relative to control; assay type: functional; conditions: route intraperitoneal
L1210 [11] = test: Antitumor activity against mouse L1210 cells allografted in CDF1 mouse at 29 mg/kg, ip administered from day 1 to day 9 relative to control; assay type: functional; conditions: route intraperitoneal

Compound	T/C (L1210 [1])	T/C (L1210 [2])	T/C (L1210 [3])	T/C [4]	T/C [5]	Activity (Mus musculus)	T/C [6]	T/C (L1210 [7])	T/C [8]	T/C (L1210 [9])	T/C [10]	T/C (L1210 [11])
CC(=O)O[C@@H]1[C@@H](OC(C)=O)[C@@H](O[C@]2(CNC(=O)N(C)N=O)O[C@H](CNC(=O)N(C)N=O)[C@@H](OC(C)=O)[C@@H]2OC(C)=O)O[C@H](CNC(=O)N(C)N=O)[C@H]1OC(C)=O	104%	120%	102%	–	–	–	–	–	–	–	–	–
CN(N=O)C(=O)NC[C@H]1O[C@@](CO)(O[C@H]2O[C@H](CNC(=O)N(C)N=O)[C@@H](O)[C@H](O)[C@H]2O)[C@@H](O)[C@@H]1O	107%	137%	129%	148%	97%	Toxic	111%	–	–	–	–	–
CC(=O)OC[C@@]1(O[C@H]2O[C@H](CNC(=O)N(C)N=O)[C@@H](OC(C)=O)[C@H](OC(C)=O)[C@H]2OC(C)=O)O[C@H](CNC(=O)N(C)N=O)[C@@H](OC(C)=O)[C@@H]1OC(C)=O	109%	119%	105%	–	–	–	–	–	–	–	–	–
CN(N=O)C(=O)N[C@@H](C=O)[C@@H](O)[C@H](O)[C@H](O)CO [STREPTOZOCIN]	–	–	107%	–	–	–	–	137%	127%	109%	144%	117%
CN(N=O)C(=O)NC[C@H]1O[C@@](CNC(=O)N(C)N=O)(O[C@H]2O[C@H](CNC(=O)N(C)N=O)[C@@H](O)[C@H](O)[C@H]2O)[C@@H](O)[C@@H]1O	110%	137%	117%	133%	120%	Non-toxic	97%	–	–	–	–	–

Reference: ChEMBL document CHEMBL3272066, “Synthesis of nitrosourea derivatives of sucrose as central nervous system anticancer agents” (J Med Chem, 1977)
